Test results taken from patent publication US20160264593A1 (priority 2013, published 2016).
Like-named read-outs stand apart in the source and are kept apart here.

How the values were obtained:
[1] = Pharmacokinetic study of 153 (and metabolite endothal) in SD rats, iv and po; plasma, liver, brain; format: in vivo; conditions: for endothal detectable in brain samples: after single iv 153 at 1.25 mg/kg, 1.25 mg/kg
Description: The blood, liver and brain tissue samples were collected at predetermined times from rats. […] Compound were diluted shortly before use in 4% sodium bicarbonate for sterile injection (this is the standard pediatric solution of NaHCO3 with a pH of about 8.5).
Compound 153 was freshly prepared by diluting the drugs shortly before use in 4% sodium bicarbonate for sterile injection (this is the standard pediatric solution of NaHCO3 with a pH of about 8.5). The final concentrations of 153 solutions were 0.25 mg/mL. The 153 solutions were administered via iv or po route at dose volume of 5 ml/kg according to the latest body weight. Compound 157 was freshly prepared by diluting the drugs shortly before use in 4% sodium bicarbonate for sterile injection (this is the standard pediatric solution of NaHCO3 with a pH of about 8.5). The final concentrations of […] solutions were 0.3 mg/mL. The 157 solutions were administered via iv or po route at dose volume of 5 ml/kg according to the latest body weight.
Twelve (12) female SD rats per group were dosed by iv with 153 or 157. The rats were fasted overnight prior to dosing, with free access to water. Foods were withheld for 2 hours post-dose. Blood, liver and brain tissue samples in two animals each group were collected at each time point, within 10% of the scheduled time for each time point. Two extra animals were used for analytic method development.
Blood (>0.3 mL) were collected via aorta abdominalis in anaesthetic animals into tubes containing heparin at 15 min, 1, 2, 6, 10 and 24 hours after iv administration. Liver and brain tissues were collected immediately after animal death. The liver and brain tissues were excised and rinsed with cold saline to avoid blood residual. Upon collection, each sample was placed on ice and the blood samples were subsequently centrifuged (4° C., 11000 rpm, 5 min) to separate plasma. The obtained plasma, liver and brain tissue samples were stored at −70° C. until LC-MS/MS analysis.
Two (2) female SD rats per group were dosed by po with 153 or 157. The rats were fasted overnight prior to dosing, with free access to water. Foods were withheld for 2 hours post-dose. Blood samples (>0.3 mL) were collected via aorta abdominalis in anaesthetic animals into tubes containing heparin at 30 min, 1, 2, 6, 10 and 24 hours after po administration.
To each sample, 20 μL IS-D (for blank samples, 20 μL acetonitrile:water (1:1) was added) and 300 μl acetonitrile was added. The sample mixture was vortexed for approximately 3 min. After centrifugation at 10000 rpm for 5 min at 4° C., 100 μL of the upper layer was transferred to a new tube and added 200 μL 0.4% formic acid in water (pH 6.0). The mixture was vortexed for approximately 3 min before injected onto the LC/MS/MS system for analysis.
On the day of the assay, the frozen liver and brain samples were thawed unassisted at room temperature. An about 200 mg weighed sample of each thawed tissue was placed into a plastic tube with water (0.6 mL) to facilitate homogenization. Tissue processing was conducted using a homogenizer for approximately 1 min, 200 μl homogenate was transferred into a fresh Eppendorf tube. To each tube, 50 μL IS-D was added and mixed. Then 600 μl acetonitrile was added and the sample mixture was vortexed for approximately 3 min. After centrifugation at 10000 rpm for 5 min at 4° C., 400 μL of the upper layer was transferred to a new tube and evaporate the supernatant to dryness at 35° C. Reconstitute the residue with 200 μL of 0.4% formic acid in water (pH6.0), and vortex for 3 min, submit for LC-MS/MS analysis.
Frozen unknown plasma samples were completely thawed at room temperature and vortexed thoroughly. With a pipette, 50 μL of plasma was transferred into a 2.0 mL Eppendorf tube. 50 μL of 0.1N HCl and 800 μL ethyl acetate were added into each sample. The sample mixture was vortexed for approximately 3 min.

[2] = female dogs, day 4, cited from earlier work
[3] = Microsomal stability, dog microsomes; format: in vitro ADME; conditions: relative to verapamil
[4] = in vivo; conditions: rat, po

O=C(O)C1C2CCC(O2)C1C(=O)O (centres unmarked) [Endothal, 7-oxabicyclo[2.2.1]heptane-2,3-dicarboxylic acid]
Endothal plasma concentration ([1]; after iv 153, 10 hr, Rat 2): BLQ
Endothal plasma concentration ([1]; after iv 153, 24 hr, Rat 1): BLQ
Endothal plasma concentration ([1]; after iv 153, 24 hr, Rat 2): BLQ
Endothal plasma concentration ([1]; after po 153, 10 hr, Rat 1): BLQ
endothal detectable in brain samples [1]: undetectable
endothal detectable in brain samples ([1]; listed as endothal): not detectable

CN1CCN(C(=O)C2C3CCC(O3)C2C(=O)O)CC1 (centres unmarked) [Compound 100, 3-(4-methylpiperazine-1-carbonyl)-7-oxa-bicyclo[2,2,1]-heptane-2-carboxylic acid]
AUClast ([2]; 0.15 mg/kg): 335 ng·h/mL
Cmax ([2]; 0.15 mg/kg): 370 ng/mL
Co ([2]; 0.15 mg/kg): 566 ng/mL
T1/2 ([2]; 0.15 mg/kg): 28.2 min
Tmax ([2]; 0.15 mg/kg): 15 min
AUClast ([2]; 0.30 mg/kg): 1020 ng·h/mL
Cmax ([2]; 0.30 mg/kg): 731 ng/mL
Co ([2]; 0.30 mg/kg): 857 ng/mL
T1/2 ([2]; 0.30 mg/kg): 48.6 min
Tmax ([2]; 0.30 mg/kg): 21 min
AUClast ([2]; 0.50 mg/kg): 2120 ng·h/mL
Cmax ([2]; 0.50 mg/kg): 1260 ng/mL
Co ([2]; 0.50 mg/kg): 1930 ng/mL
T1/2 ([2]; 0.50 mg/kg): 72 min
Tmax ([2]; 0.50 mg/kg): 15 min
stability in the presence of microsomes [3]: stable relative to verapamil
bioavailability [4]: 1%
